The structures appear in SMILES notation. ≈ marks a conversion by molar mass, not a printed value. A value given as a limit tells only on which side of the number the result lay.

Assay [1] has as its system Moraxella catarrhalis. Nature of the assay: In vitro antibacterial activity against Moraxella catarrhalis strains 30607 and 30603 (MC); range is 16-32. In kind it is functional.
The test system of assay [2] is Haemophilus influenzae. Nature of the assay: In vitro antibacterial activity against Haemophilia influenzae strains 30063 and ATCC 31517 (HI); range is 32->64. In kind it is functional.
Assay [3] deals with Staphylococcus epidermidis. In words: In vitro antibacterial activity against Staphylococcus epidermidis strains UC12084, 30031, and CDC-CNS90 (SE); range is 4-8. In kind it is functional.
For assay [4], the system named is Streptococcus pneumoniae. In words: In vitro antibacterial activity against Streptococcus pneumoniae strains ATCC 6305 and 31573 (SPN); range is 4-8.
In assay [5] the test system is Staphylococcus aureus. In words: In vitro antibacterial activity against linezolid-resistant Staphylococcus aureus ATCC 29213 (LRSA). The class given is functional.
The test system of a further assay is Enterococcus faecium. In words: In vitro antibacterial activity against vancomycin-resistant Enterococcus faecium UC12712 (VRE).
For assay [6], the system named is Staphylococcus aureus. In words: In vitro antibacterial activity against Staphylococcus aureus strains UC12673, UC9213, ATCC 29213, and UC9271 (SA); range is 16-32. The class given is functional.
For assay [7], the system named is Streptococcus pneumoniae. In words: In vitro antibacterial activity against Streptococcus pneumoniae strains ATCC6305 and 31573 (SPN).
Assay [8] has as its system Haemophilus influenzae. In words: In vitro antibacterial activity against Haemophilia influenzae strains ATCC 30063 and ATCC 31517. The class given is functional.
For assay [9], the system named is Moraxella catarrhalis. In words: In vitro antibacterial activity against Moraxella catarrhalis strains 30607 and 30603 (MC). In kind it is functional.
Assay [10] concerns Staphylococcus aureus. Nature of the assay: In vitro antibacterial activity against Staphylococcus aureus strains UC12673, UC9213, ATCC 29213, and UC9271 (SA). The class given is functional.
Assay [11] deals with Staphylococcus epidermidis. Nature of the assay: In vitro antibacterial activity against Staphylococcus epidermidis strains UC12084, 30031, and CDC-CNS90 (SE). In kind it is functional.
The subject of assay [12] is Staphylococcus aureus. Nature of the assay: In vitro antibacterial activity against Staphylococcus aureus strains UC12673, UC9213, ATCC 29213, and UC9271 (SA); range is 2-4. In kind it is functional.
In assay [13] the test system is Streptococcus pneumoniae. Nature of the assay: In vitro antibacterial activity against Streptococcus pneumoniae strains ATCC 6305 and 31573 (SPN). The class given is functional.
In assay [14] the test system is Staphylococcus aureus. Nature of the assay: In vitro antibacterial activity against Staphylococcus aureus strains UC12673, UC9213, ATCC 29213, and UC9271 (SA); range is 2-8. In kind it is functional.
In assay [15] the test system is Staphylococcus epidermidis. Nature of the assay: In vitro antibacterial activity against Staphylococcus epidermidis strains UC12084, 30031, and CDC-CNS90 (SE); range is 1-2. In kind it is functional.
The subject of assay [16] is Moraxella catarrhalis. In words: In vitro antibacterial activity against Moraxella catarrhalis strains 30607 and 30603 (MC); range is 8-16. The class given is functional.
Assay [17] deals with Moraxella catarrhalis. In words: In vitro antibacterial activity against Moraxella catarrhalis strains 30607 and 30603 (MC); range is 32->64. The class given is functional.
The subject of assay [18] is Haemophilus influenzae. In words: In vitro antibacterial activity against Haemophilia influenzae strains 30063 and ATCC 31517 (HI); range is 4-16. The class given is functional.
Assay [19] concerns Staphylococcus aureus. Nature of the assay: In vitro antibacterial activity against Staphylococcus aureus strains UC12673, UC9213, ATCC 29213, and UC9271 (SA); range is 4-16. In kind it is functional.
Assay [20] concerns Staphylococcus epidermidis. In words: In vitro antibacterial activity against Staphylococcus epidermidis strains UC12084, 30031, and CDC-CNS90 (SE); range is 0.5-1. The class given is functional.
Assay [21] deals with Staphylococcus aureus. Nature of the assay: In vitro antibacterial activity against Staphylococcus aureus strains UC12673, UC9213, ATCC 29213, and UC9271 (SA); range is 4-8. The class given is functional.
In assay [22] the test system is Haemophilus influenzae. In words: In vitro antibacterial activity against Haemophilia influenzae strains 30063 and ATCC 31517 (HI); range is 32-64. In kind it is functional.

As for `COCC(=O)NC[C@H]1CN(c2ccc(N3CC[S+]([O-])CC3)c(F)c2)C(=O)O1`, the MIC against Moraxella catarrhalis [1] was 16 µg/mL (≈ 40.1 µM); against Haemophilus influenzae [2], 32 µg/mL (≈ 80.1 µM); in [3], 4 µg/mL (≈ 10 µM); against Streptococcus pneumoniae [4] it was 4 µg/mL (≈ 10 µM); with Staphylococcus aureus [5], > 64 µg/mL; in the assay on Enterococcus faecium, 16 µg/mL (≈ 40.1 µM). For the same compound, the MIC in the assay on Staphylococcus aureus [6] is 16 µg/mL (≈ 40.1 µM).

For `O=C1O[C@@H](CNC(=O)C(F)(F)F)CN1c1ccc(N2CC[S+]([O-])CC2)c(F)c1`, the MIC against Streptococcus pneumoniae [7], with Haemophilus influenzae [8], against Staphylococcus aureus [5], with Moraxella catarrhalis [9], against Enterococcus faecium and against Staphylococcus aureus [10] was > 64 µg/mL each time. The MIC in assay [11] was > 64 µg/mL.

In the case of `O=C(/C=C/c1ccc(Cl)cc1)NC[C@H]1CN(c2ccc(N3CC[S+]([O-])CC3)c(F)c2)C(=O)O1`, the MIC with Staphylococcus aureus [12] stood at 2 µg/mL (≈ 4.07 µM); with Haemophilus influenzae [2], 32 µg/mL (≈ 65 µM); against Staphylococcus aureus [5] it was 8 µg/mL (≈ 16.3 µM); against Moraxella catarrhalis [9], 8 µg/mL (≈ 16.3 µM); against Enterococcus faecium, 2 µg/mL (≈ 4.07 µM); in assay [11], 1 µg/mL (≈ 2.03 µM).

For `COc1ccc(/C=C/C(=O)NC[C@H]2CN(c3ccc(N4CC[S+]([O-])CC4)c(F)c3)C(=O)O2)cc1`, the MIC in the assay with Haemophilus influenzae [8] was > 64 µg/mL; against Staphylococcus aureus [5], > 64 µg/mL; against Moraxella catarrhalis [9] it was > 64 µg/mL; in the assay on Enterococcus faecium, 4 µg/mL (≈ 8.2 µM); in the assay with Staphylococcus aureus [10] it was 4 µg/mL (≈ 8.2 µM); in assay [11], 2 µg/mL (≈ 4.1 µM).

Consider `CC(=O)Oc1ccc(/C=C/C(=O)NC[C@H]2CN(c3ccc(C4CC[S+]([O-])CC4)c(F)c3)C(=O)O2)cc1` (stereo partly drawn), for which the MIC with Streptococcus pneumoniae [13] was determined as 8 µg/mL (≈ 15.5 µM); against Staphylococcus aureus [14], 2 µg/mL (≈ 3.89 µM); in assay [15], 1 µg/mL (≈ 1.94 µM); in the assay on Haemophilus influenzae [8] it was 32 µg/mL (≈ 62.2 µM); in the assay with Moraxella catarrhalis [16] it was 8 µg/mL (≈ 15.5 µM).

Take `O=C1O[C@@H](CNC(=O)C(F)(F)F)CN1c1ccc(N2CCS(=O)(=O)CC2)c(F)c1`: the MIC was 32 µg/mL (≈ 72.8 µM) against Moraxella catarrhalis [17]; ≥ 64 µg/mL with Haemophilus influenzae [8]; 16 µg/mL (≈ 36.4 µM) in the assay on Staphylococcus aureus [5]; 16 µg/mL (≈ 36.4 µM) against Enterococcus faecium; 16 µg/mL (≈ 36.4 µM) against Staphylococcus aureus [6]; 8 µg/mL (≈ 18.2 µM) in [11].

In the case of `O=C(NC[C@H]1CN(c2ccc(C3CCS(=O)(=O)CC3)c(F)c2)C(=O)O1)c1ccc(Cl)c(Cl)c1`, the MIC against Streptococcus pneumoniae [13] is > 64 µg/mL; in the assay with Haemophilus influenzae [8] it was > 64 µg/mL; in the assay on Moraxella catarrhalis [9], > 64 µg/mL; against Staphylococcus aureus [10], > 64 µg/mL; in assay [11] it was 2 µg/mL (≈ 3.88 µM).

In the case of `O=C(NC[C@H]1CN(c2ccc(C3CCS(=O)(=O)CC3)c(F)c2)C(=O)O1)C(F)F`, the MIC against Streptococcus pneumoniae [7] is 1 µg/mL (≈ 2.38 µM); in [15] it was 1 µg/mL (≈ 2.38 µM); in the assay with Haemophilus influenzae [18], > 4 µg/mL; against Staphylococcus aureus [5] it was 32 µg/mL (≈ 76.1 µM); in the assay on Moraxella catarrhalis [9], 8 µg/mL (≈ 19 µM); with Enterococcus faecium, 4 µg/mL (≈ 9.51 µM). Besides, in the assay with Staphylococcus aureus [19], the MIC is 4 µg/mL (≈ 9.51 µM).

On to `O=C(CF)NC[C@H]1CN(c2ccc(C3CCS(=O)(=O)CC3)c(F)c2)C(=O)O1`, for which the MIC was 0.5 µg/mL (≈ 1.24 µM) in assay [20]; 0.5 µg/mL (≈ 1.24 µM) in the assay on Streptococcus pneumoniae [7]; > 4 µg/mL against Haemophilus influenzae [18]; 64 µg/mL (≈ 159 µM) with Staphylococcus aureus [5]; > 8 µg/mL against Moraxella catarrhalis [9]; 2 µg/mL (≈ 4.97 µM) against Enterococcus faecium. In addition, in the assay on Staphylococcus aureus [10], the MIC came to 2 µg/mL (≈ 4.97 µM).

For the compound `O=C(/C=C/c1ccc(O)cc1)NC[C@H]1CN(c2ccc(C3CC[S+]([O-])CC3)c(F)c2)C(=O)O1` (stereo partly drawn), the MIC with Staphylococcus aureus [14] is 2 µg/mL (≈ 4.23 µM); in assay [15] it was 1 µg/mL (≈ 2.12 µM); against Haemophilus influenzae [8], > 64 µg/mL; in the assay with Moraxella catarrhalis [16], 8 µg/mL (≈ 16.9 µM); in the assay with Staphylococcus aureus [5] it was > 64 µg/mL; against Enterococcus faecium it was 4 µg/mL (≈ 8.46 µM).

As for `O=C(/C=C/c1ccc(F)cc1)NC[C@H]1CN(c2ccc(N3CC[S+]([O-])CC3)c(F)c2)C(=O)O1`, the MIC was 16 µg/mL (≈ 33.6 µM) in the assay on Moraxella catarrhalis [1]; 4 µg/mL (≈ 8.41 µM) with Staphylococcus aureus [21]; 32 µg/mL (≈ 67.3 µM) against Haemophilus influenzae [22]; 32 µg/mL (≈ 67.3 µM) in the assay on Staphylococcus aureus [5]; 4 µg/mL (≈ 8.41 µM) with Enterococcus faecium; 2 µg/mL (≈ 4.21 µM) in [11].

Values taken from ChEMBL document CHEMBL1136459, “New antibacterial tetrahydro-4(2H)-thiopyran and thiomorpholine S-oxide and S,S-dioxide phenyloxazolidinones” (Bioorg Med Chem Lett, 2003).
